Measured values as given in patent US20090062355A1, “Pharmaceutical Product” (Takeda Pharmaceutical Company Limited, priority 2006, published 2009).
Read-outs that look alike come from different tables or passages of the source.

System: Human Peripheral Blood Mononuclear Cell
Assay: Suppressive action on production of mediator from human peripheral blood mononuclear cell
Type: cell-based
Settings: LPS 10 ng/mL and INFα 1 U/mL, overnight, ELISA
Protocol: Peripheral blood mononuclear cells were separated from three healthy subjects by a conventional method, suspended in RPMI1640 medium supplemented with 10% inactivated fetal bovine serum, and plated on a 96 well microplate at 8×10^4 cells/well. Test compound 2 (compound 8′ of Reference Example D7), LPS (final concentration 10 ng/mL) and INFα (final concentration 1 U/mL) were added, cultured overnight, and TNF-α, IL-6 and IL-8 in the culture supernatant was quantified using a commercially available ELISA kit. Test substance was dissolved in N,N-dimethylformamide to 10 mM, diluted with the medium to 10-fold concentration of the final concentration and 1/10 thereof was added. Test compound 2 suppressed production of TNFα, IL-6 and IL-8 at an equivalent IC50. In addition, no difference in the suppressive activity was found in the peripheral blood mononuclear cells of the three subjects.

Question: What does the source list for `CCOC(=O)C1=CCOCC1S(=O)(=O)Nc1ccc(F)cc1Cl` (stereo not drawn) [test compound 2, ethyl 3-[(2-chloro-4-fluorophenyl)sulfamoyl]-3,6-dihydro-2H-pyran-4-carboxylate]?
Answer: IC50 (subject A, read-out: IC50, IL-6 production): 36 nM; IC50 (subject A, read-out: IC50, IL-8 production): 83 nM; IC50 (subject A, read-out: IC50, TNF-α production): 43 nM; IC50 (subject B, read-out: IC50, IL-6 production): 51 nM; IC50 (subject B, read-out: IC50, IL-8 production): 130 nM; IC50 (subject B, read-out: IC50, TNF-α production): 39 nM; IC50 (subject C, read-out: IC50, IL-6 production): 35 nM; IC50 (subject C, read-out: IC50, IL-8 production): 81 nM; IC50 (subject C, read-out: IC50, TNF-α production): 32 nM
